Values after ≈ are worked out from the molar mass of the structure shown. Read-outs that look alike come from different tables or passages of the source.

Assay [1] concerns the target human recombinant monomeric α-Synuclein (Homo sapiens, UniProt P37840). Briefly: Thioflavin-T fluorescence assay of α-Synuclein amyloid aggregation. Conditions: test compound 100 μM; 70 μM α-Synuclein; after 144 hours of shaking; percent of optimal response without tetracycline. Format: biochemical. As to the method:
Aggregation studies were performed at 37° C. on samples containing 70 μM human recombinant monomeric α-Synuclein that were submitted to constant orbital agitation (Thermomixer Comfort, Eppendorf) at 600 rpm in the absence or in the presence of test compounds, at 100 μM. The formation of α-Synuclein aggregated species was monitored using the fluorescence probe Thioflavin-T (LeVine, Methods Enzymol. 1999, 309, 274-284; González-Lizárraga, et al. Sci Rep. 2017, 7, 41755), at a concentration of 25 μM. Changes in emission fluorescence were measured after 144 hrs of continuous shaking, at an excitation wavelength of 450 nm using a Horiba FluoroMax 4 spectrometer.

Assay [2] concerns E. coli DH5α. Briefly: Disc diffusion assay to assess antimicrobial activities (inhibition of bacterial growth). Format: cell-based. Particulars: read-out: Minimal inhibitory concentration. As to the method: The antibacterial activities of test compounds were evaluated using the disc diffusion method (Kavanagh, Academic Press, Inc., New York, 1963, 125-140; Pomares et al, J Bacteriol. 2008, 30 190, 4328-4334). Briefly, filter-paper discs impregnated with 10 μl of two-fold serial dilutions of test compounds were placed onto LB solid medium Petri dishes. Then, aliquots (50 μl) of an E. coli DH5α culture in stationary phase were mixed with 3 ml of top agar (0.7% agar) and overlaid onto the plates. After overnight incubation at 37° C., the plates were examined for different degrees of inhibition. The antibacterial efficacy of a test compound was estimated by the Minimum Inhibitory Concentration (MIC) assay that determines the lowest concentration inhibiting visible growth of bacteria. Each test was performed in duplicate vs. the reference compound, doxycycline (“DOX”).
(In agar diffusion tests the substance spreads into inoculated agar from a disc or well.)

In assay [3] the test system is dopaminergic midbrain neurons (TH+). Briefly: Neuroprotection of TH+ dopaminergic neurons in primary mouse midbrain cultures (spontaneous oxidative stress). Format: cell-based. Particulars: Neuron, 168 h, cultured for 7 days, estimated graphically, read-out: EC50 (concentration protecting 50% of TH+ neurons). Here is the method:
The inventors have further shown that compounds 1-H and 1-Me exert robust and concentration-dependent neuroprotective effects in a cell model in which the dopaminergic midbrain neurons, vulnerable in Parkinson's disease, degenerate further to a spontaneous oxidative stress of low intensity resulting from the presence of catalytic iron in the culture medium (Guerreiro et al, J Neurochem. 2009; 109(4):1118-28; Rousseau et al, Mol Pharmacol. 2013; 84(6):888-98).
Cultures were carried out using embryos of Swiss mice (Janvier LABS, Le Genest St. Isles, 30 France), collected at 13.5 days of gestation. The experimental procedures were performed in accordance with Directive 2010/63/EU of the Council of the European Union, using a protocol validated by the Charles Darwin ethics committee no. 5. The protocol is based on techniques reported previously (Rousseau et al, 2013, supra; Lavaur et al, J Neurochem. 2017; 142(1):14-28), using an additional step of trypsinization with an EDTA (2mM)-trypsin (0.05%) solution to facilitate the dissociation of brain tissue. The cells in suspension are distributed in 48-well multi-well dishes (Nunc; ThermoFisher Scientific), at a density of 50-80. 10^3 cells/cm^2, using Dulbecco's Modified Eagle's Medium/Nutrient Mixture F-12 Ham (Sigma-Aldrich), supplemented with 10% fetal calf serum. After 2 hours, the cultures are washed completely and placed in the presence of the same medium containing only 20 μg/ml of bovine insulin. The cultures are also treated with cytarabine (1.5 μM) on the first day in vitro and on the following day to reduce the number of glial cells in the cultures.
These cultures contain between 1 to 2% of dopaminergic neurons. […] Assessment of the number of dopaminergic neurons is done by counting TH^+ neurons with a Nikon Eclipse Ti-U inverted microscope.
The reference molecule used to prevent the loss of dopaminergic neurons is apotransferrin (APO; Sigma Aldrich; 100 μg/ml), a protein that chelates ferric iron in culture medium.

Where [4] appears, read: E. coli DH5α, disc diffusion, overnight incubation at 37° C., assayed twice.
Where [5] appears, read: Escherichia coli, E. coli DH5α, disc diffusion, overnight incubation at 37° C., assayed twice.

`NC(=O)C1=C(O)C[C@@H]2C[C@H]3C(=C(O)C2C1=O)C(=O)c1c(O)ccc(Cl)c1[C@H]3O` (stereo partly drawn) [1-H, 7-chloro-3,6,10,12-tetrahydroxy-1,11-dioxo-1,4,4α,5,5α,6,11,12α-octahydrotetracene-2-carboxamide]: the “residual Thioflavin-T fluorescence level” value in assay [1] is 1.5%. Moreover, the MIC in assay [2] (setting [4]) is >2000 µM; in assay [2] (Escherichia coli), > 2000 µM. Besides, the EC50 in assay [3] is 810 nM.
Regarding `C[C@@]1(O)c2c(Cl)ccc(O)c2C(=O)C2=C(O)C3C(=O)C(C(N)=O)=C(O)C[C@@H]3C[C@@H]21` (stereo partly drawn) [1-Me, 7-chloro-3,6,10,12-tetrahydroxy-6-methyl-1,11-dioxo-1,4,4α,5,5α, 6,11,12α-octahydrotetracene-2-carboxamide], the “residual Thioflavin-T fluorescence level” value in assay [1] was found to be 13.5%. The MIC in assay [2] (setting [4]) was >2000 µM; in assay [2] (setting [5]), > 2000 µM. In assay [3], the EC50 is 2010 nM.
As for `C[C@H]1c2cccc(O)c2C(=O)C2=C(O)[C@]3(O)C(=O)C(C(N)=O)=C(O)[C@@H](N(C)C)[C@@H]3[C@@H](O)[C@@H]21` [DOX, doxycycline, reference compound], the “residual Thioflavin-T fluorescence level” value in assay [1] stood at 21.1%. In addition, the MIC in assay [2] (setting [5]) was determined as 62.5 µM (≈ 27.8 µg/mL). In addition, in assay [3], the EC50 was 5200 nM.

These data come from patent US20230390309A1, “TETRACYCLINE DERIVATIVES FOR TREATING NEURODEGENERATIVE OR NEUROINFLAMMATORY DISEASES” (INSTITUT DU CERVEAU ET DE LA MOELLE EPINIERE, priority 2020, published 2023).
